Earlier results in PMC7544826 (Communications Biology, 2020).

Assays:
[1] = in vivo; cited from earlier work
adenosine receptors = settings: through the adenosine receptors; cited from earlier work

## Cn1c(=O)c2c(ncn2C)n(C)c1=O [caffeine, 1,3,7-trimethylxanthine]
[1]
  Plasma concentration at therapeutic use: ≤ 150 µM
Adenosine receptors
  Concentration at which CNS stimulating effects are apparent: 2.5 µM
